Measured values published in patent US9278922B2 (ABBVIE INC., priority 2009, dated 2016).

Tested on: HCV 1b-Con-1 replicon
Experiment: HCV 1b-Con-1 replicon assay (luciferase reporter gene, HuH-7 cells)
Type: cell-based, Hepatitis C virus (HCV) genotype 1b-Con1
Details: Hepatitis C virus, Huh-7, luciferase reporter gene activity in the replicon, in the presence of 5% FBS

SMILES | EC50 [nM]
O=C(Nc1ccc(CN(Cc2ccc(NC(=O)[C@@H]3CCCN3C(=O)[C@@H](c3ccccc3)N3CCCC3)cc2)c2ccc(F)cc2)cc1)[C@@H]1CCCN1C(=O)[C@@H](c1ccccc1)N1CCCC1 [Example 85, (2S,2′S)-N,N′-{[(4-fluorophenyl)imino]bis(methanediylbenzene-4,1-diyl)}bis{1-[(2R)-2-phenyl-2-pyrrolidin-1-ylacetyl]pyrrolidine-2-carboxamide}] | < 1
COC(=O)N[C@H](C(=O)N1CCC[C@H]1C(=O)Nc1ccc(CN(Cc2ccc(NC(=O)[C@@H]3CCCN3C(=O)[C@@H](NC(=O)OC)[C@H]3CCOC3)cc2)c2ccc(F)cc2)cc1)[C@H]1CCOC1 [Example 86, dimethyl {[(4-fluorophenyl)imino]bis[methanediylbenzene-4,1-diylcarbamoyl(2 S)pyrrolidine-2,1-diyl{(1S)-2-oxo-1-[(3R)-tetrahydrofuran-3-yl]ethane-2,1-diyl}]}biscarbamate] | < 1
COC(=O)N[C@H](C(=O)N1CCC[C@H]1C(=O)Nc1ccc(CN(Cc2ccc(NC(=O)[C@@H]3CCCN3C(=O)[C@H](NC(=O)[C@@H]3CCCO3)c3ccccc3)cc2)c2ccccc2)cc1)C(C)(C)C [Example 87, N-(methoxycarbonyl)-3-methyl-L-valyl-N-[4-({phenyl[4-({1-[(2R)-2-phenyl-2-{[(2S)-tetrahydrofuran-2-ylcarbonyl]amino}acetyl]-L-prolyl}amino)benzyl]amino}methyl)phenyl]-L-prolinamide] | < 1
COC(=O)N[C@H](C(=O)N1CCC[C@H]1C(=O)Nc1ccc(CN(Cc2ccc(NC(=O)[C@@H]3CCCN3C(=O)[C@H](NC(=O)[C@H]3CCCO3)c3ccccc3)cc2)c2ccccc2)cc1)C(C)(C)C [Example 88, N-(methoxycarbonyl)-3-methyl-L-valyl-N-[4-({phenyl[4-({1-[(2R)-2-phenyl-2-{[(2R)-tetrahydrofuran-2-ylcarbonyl]amino}acetyl]-L-prolyl}amino)benzyl]amino}methyl)phenyl]-L-prolinamide] | < 1
CCN(CC)[C@@H](C(=O)N1CCC[C@H]1C(=O)Nc1ccc(CN(Cc2ccc(NC(=O)[C@@H]3CCCN3C(=O)[C@@H](c3ccccc3)N(CC)CC)cc2)c2ccc(F)c(F)c2)cc1)c1ccccc1 [Example 89, (2S,2′S)-N,N′-{[(3,4-difluorophenyl)imino]bis(methanediylbenzene-4,1-diyl)}bis{1-[(2R)-2-(diethylamino)-2-phenylacetyl]pyrrolidine-2-carboxamide}] | < 1
COC(=O)N[C@H](C(=O)N1CCC[C@H]1C(=O)Nc1ccc(CN(Cc2ccc(NC(=O)[C@@H]3CCCN3C(=O)[C@@H](NC(=O)OC)C(C)(C)C)cc2)c2ccc(F)c(F)c2)cc1)C(C)(C)C [Example 90, dimethyl ([(3,4-difluorophenyl)imino]bis{methanediylbenzene-4,1-diylcarbamoyl(2S)pyrrolidine-2,1-diyl[(2S)-3,3-dimethyl-1-oxobutane-1,2-diyl]})biscarbamate] | < 1
COC(=O)N[C@@H](CCc1ccccc1)C(=O)N1CCC[C@H]1C(=O)Nc1ccc(CN(Cc2ccc(NC(=O)[C@@H]3CCCN3C(=O)[C@H](CCc3ccccc3)NC(=O)OC)cc2)c2ccccc2)cc1 [Example 91, dimethyl[(phenylimino)bis{methanediylbenzene-4,1-diylcarbamoyl(2S)pyrrolidine-2,1-diyl[(2S)-1-oxo-4-phenylbutane-1,2-diyl]}]biscarbamate] | 1 to 10
O=C(Nc1ccc(CN(Cc2ccc(NC(=O)[C@@H]3CCCN3C(=O)[C@@H](c3ccccc3)N3CCCCC3)cc2)c2ccc(F)cc2)cc1)[C@@H]1CCCN1C(=O)[C@@H](c1ccccc1)N1CCCCC1 [Example 92, (2S,2′S)-N,N′-{[(4-fluorophenyl)imino]bis(methanediylbenzene-4,1-diyl)}bis{1-[(2R)-2-phenyl-2-piperidin-1-ylacetyl]pyrrolidine-2-carboxamide}] | < 1
